Patent US6096930A, “Herbicidal cyclohexane-1,3-dione derivatives and their preparation process” (Korea Research Institute of Chemical Technology, priority 1994, dated 2000)
Read-outs that look alike come from different tables or passages of the source.

What was measured:
Test in all cases: Herbicidal activity for paddy test
Type in all cases: in vivo
ECHOR = conditions: for pest or weed control at 2 g/ha: 0.002 kg/ha; for pest or weed control at 8 g/ha: 0.008 kg/ha; for pest or weed control at 31 g/ha: 0.031 kg/ha; for pest or weed control at 125 g/ha: 0.125 kg/ha; for pest or weed control at 500 g/ha: 0.500 kg/ha
Description: (§1) The sterilized sandy loam soil is filled in test pot having a surface area of 348 cm^2 for upland test conditions or 115 cm^2 for paddy test species were planted in furrows.
(§2) The herbicidal activity data were taken visually by percent control, wherein 0 signifies no herbicidal effect and 100 signifies complete kill.

SCPJU = conditions: for pest or weed control at 2 g/ha: 0.002 kg/ha; for pest or weed control at 8 g/ha: 0.008 kg/ha; for pest or weed control at 31 g/ha: 0.031 kg/ha; for pest or weed control at 125 g/ha: 0.125 kg/ha; for pest or weed control at 500 g/ha: 0.500 kg/ha
Description: as §1, §2

SAGPY = conditions: for pest or weed control at 2 g/ha: 0.002 kg/ha; for pest or weed control at 8 g/ha: 0.008 kg/ha; for pest or weed control at 31 g/ha: 0.031 kg/ha; for pest or weed control at 125 g/ha: 0.125 kg/ha; for pest or weed control at 500 g/ha: 0.500 kg/ha
Description: as §1, §2

MOOVA = conditions: for pest or weed control at 2 g/ha: 0.002 kg/ha; for pest or weed control at 8 g/ha: 0.008 kg/ha; for pest or weed control at 31 g/ha: 0.031 kg/ha; for pest or weed control at 125 g/ha: 0.125 kg/ha; for pest or weed control at 500 g/ha: 0.500 kg/ha
Description: as §1, §2

ORYSA = conditions: for plant injury at 2 g/ha: 0.002 kg/ha; for plant injury at 8 g/ha: 0.008 kg/ha; for plant injury at 31 g/ha: 0.031 kg/ha; for plant injury at 125 g/ha: 0.125 kg/ha; for plant injury at 500 g/ha: 0.500 kg/ha
Description: as §1, §2

[1] = 3 Leaf, read-out: Herbicidal activity, ORYSA (3 Leaf)
[2] = seed, read-out: Herbicidal activity, ORYSA (seed)

Row | Structure (SMILES) | pest or weed control at 2 g/ha (ECHOR) | pest or weed control at 8 g/ha (ECHOR) | pest or weed control at 31 g/ha (ECHOR) | pest or weed control at 125 g/ha (ECHOR) | pest or weed control at 500 g/ha (ECHOR) | pest or weed control at 2 g/ha (SCPJU) | pest or weed control at 8 g/ha (SCPJU) | pest or weed control at 31 g/ha (SCPJU) | pest or weed control at 125 g/ha (SCPJU) | pest or weed control at 500 g/ha (SCPJU) | pest or weed control at 2 g/ha (SAGPY) | pest or weed control at 8 g/ha (SAGPY) | pest or weed control at 31 g/ha (SAGPY) | pest or weed control at 125 g/ha (SAGPY) | pest or weed control at 500 g/ha (SAGPY) | pest or weed control at 2 g/ha (MOOVA) | pest or weed control at 8 g/ha (MOOVA) | pest or weed control at 31 g/ha (MOOVA) | pest or weed control at 125 g/ha (MOOVA) | pest or weed control at 500 g/ha (MOOVA) | other results
1 | CCC(=NOC)C1=C(O)CC(c2c(C)c3c(c(C)c2Cl)CC(C)(C)C3)CC1=O (stereo not drawn) [Compound 21] | 40% | 95% | 100% | 100% | 100% | 0% | 0% | 0% | 0% | 0% | 0% | 0% | 0% | 0% | 0% | 0% | 30% | 50% | 60% | 70% | plant injury at 2 g/ha (ORYSA; [1]): 0%; plant injury at 8 g/ha (ORYSA; [1]): 0%; plant injury at 31 g/ha (ORYSA; [1]): 0%; plant injury at 125 g/ha (ORYSA; [1]): 80%; plant injury at 500 g/ha (ORYSA; [1]): 100%; plant injury at 2 g/ha (ORYSA; [2]): 20%; plant injury at 8 g/ha (ORYSA; [2]): 100%; plant injury at 31 g/ha (ORYSA; [2]): 100%; plant injury at 125 g/ha (ORYSA; [2]): 100%; plant injury at 500 g/ha (ORYSA; [2]): 100%
2 | CCON=C(CC)C1=C(O)CC(c2c(C)c3c(c(C)c2Cl)CC(C)(C)C3)CC1=O (stereo not drawn) [Compound 22] | 0% | 95% | 100% | 100% | 100% | 0% | 0% | 0% | 0% | 0% | 0% | 0% | 0% | 0% | 0% | 0% | 0% | 0% | 0% | 60% | plant injury at 2 g/ha (ORYSA; [1]): 0%; plant injury at 8 g/ha (ORYSA; [1]): 0%; plant injury at 31 g/ha (ORYSA; [1]): 0%; plant injury at 125 g/ha (ORYSA; [1]): 20%; plant injury at 500 g/ha (ORYSA; [1]): 100%; plant injury at 2 g/ha (ORYSA; [2]): 0%; plant injury at 8 g/ha (ORYSA; [2]): 0%; plant injury at 31 g/ha (ORYSA; [2]): 100%; plant injury at 125 g/ha (ORYSA; [2]): 100%; plant injury at 500 g/ha (ORYSA; [2]): 100%
3 | C=CCON=C(CC)C1=C(O)CC(c2c(C)c3c(c(C)c2Cl)CC(C)(C)C3)CC1=O (stereo not drawn) [Compound 23] | 0% | 40% | 100% | 100% | 100% | 0% | 0% | 0% | 0% | 0% | 0% | 0% | 0% | 0% | 0% | 0% | 0% | 0% | 0% | 0% | plant injury at 2 g/ha (ORYSA; [1]): 0%; plant injury at 8 g/ha (ORYSA; [1]): 0%; plant injury at 31 g/ha (ORYSA; [1]): 0%; plant injury at 125 g/ha (ORYSA; [1]): 0%; plant injury at 500 g/ha (ORYSA; [1]): 60%; plant injury at 2 g/ha (ORYSA; [2]): 0%; plant injury at 8 g/ha (ORYSA; [2]): 10%; plant injury at 31 g/ha (ORYSA; [2]): 100%; plant injury at 125 g/ha (ORYSA; [2]): 100%; plant injury at 500 g/ha (ORYSA; [2]): 100%
4 | CCCC(=NOC)C1=C(O)CC(c2c(C)c3c(c(C)c2Cl)CC(C)(C)C3)CC1=O (stereo not drawn) [Compound 25] | 0% | 0% | 100% | 100% | 100% | 0% | 0% | 0% | 0% | 0% | 0% | 0% | 0% | 0% | 0% | 0% | 0% | 0% | 0% | 0% | plant injury at 2 g/ha (ORYSA; [1]): 0%; plant injury at 8 g/ha (ORYSA; [1]): 0%; plant injury at 31 g/ha (ORYSA; [1]): 0%; plant injury at 125 g/ha (ORYSA; [1]): 0%; plant injury at 500 g/ha (ORYSA; [1]): 50%; plant injury at 2 g/ha (ORYSA; [2]): 0%; plant injury at 8 g/ha (ORYSA; [2]): 0%; plant injury at 31 g/ha (ORYSA; [2]): 60%; plant injury at 125 g/ha (ORYSA; [2]): 100%; plant injury at 500 g/ha (ORYSA; [2]): 100%
5 | CCCC(=NOCC)C1=C(O)CC(c2c(C)c3c(c(C)c2Cl)CC(C)(C)C3)CC1=O (stereo not drawn) [Compound 26, 5-(6-Chloro-2,2,4,7-tetramethylindan-5-yl)-2-[1-(ethoxyimino)butyl]-3-hydroxycyclohex-2-en-1-one] | 0% | 0% | 100% | 100% | 100% | 0% | 0% | 0% | 0% | 40% | 0% | 0% | 0% | 0% | 0% | 0% | 0% | 0% | 0% | 0% | plant injury at 2 g/ha (ORYSA; [1]): 0%; plant injury at 8 g/ha (ORYSA; [1]): 0%; plant injury at 31 g/ha (ORYSA; [1]): 0%; plant injury at 125 g/ha (ORYSA; [1]): 0%; plant injury at 500 g/ha (ORYSA; [1]): 30%; plant injury at 2 g/ha (ORYSA; [2]): 0%; plant injury at 8 g/ha (ORYSA; [2]): 0%; plant injury at 31 g/ha (ORYSA; [2]): 20%; plant injury at 125 g/ha (ORYSA; [2]): 100%; plant injury at 500 g/ha (ORYSA; [2]): 100%
6 | C=CCON=C(CCC)C1=C(O)CC(c2c(C)c3c(c(C)c2Cl)CC(C)(C)C3)CC1=O (stereo not drawn) [Compound 27] | 0% | 0% | 50% | 100% | 100% | 0% | 0% | 0% | 0% | 0% | 0% | 0% | 0% | 0% | 0% | 0% | 0% | 0% | 0% | 0% | plant injury at 2 g/ha (ORYSA; [1]): 0%; plant injury at 8 g/ha (ORYSA; [1]): 0%; plant injury at 31 g/ha (ORYSA; [1]): 0%; plant injury at 125 g/ha (ORYSA; [1]): 0%; plant injury at 500 g/ha (ORYSA; [1]): 0%; plant injury at 2 g/ha (ORYSA; [2]): 0%; plant injury at 8 g/ha (ORYSA; [2]): 0%; plant injury at 31 g/ha (ORYSA; [2]): 0%; plant injury at 125 g/ha (ORYSA; [2]): 100%; plant injury at 500 g/ha (ORYSA; [2]): 100%
7 | CCC(=NOC)C1=C(O)CC(c2c(C)c(C)c3c(c2Cl)CC(C)(C)C3)CC1=O (stereo not drawn) [Compound 38] | 0% | 95% | 100% | 100% | 100% | 0% | 0% | 0% | 0% | 0% | 0% | 0% | 0% | 0% | 0% | 0% | 0% | 0% | 0% | 0% | plant injury at 2 g/ha (ORYSA; [1]): 0%; plant injury at 8 g/ha (ORYSA; [1]): 0%; plant injury at 31 g/ha (ORYSA; [1]): 0%; plant injury at 125 g/ha (ORYSA; [1]): 50%; plant injury at 500 g/ha (ORYSA; [1]): 100%; plant injury at 2 g/ha (ORYSA; [2]): 0%; plant injury at 8 g/ha (ORYSA; [2]): 20%; plant injury at 31 g/ha (ORYSA; [2]): 100%; plant injury at 125 g/ha (ORYSA; [2]): 100%; plant injury at 500 g/ha (ORYSA; [2]): 100%
